Test results from patent US4879277A, “Antiviral compositions and methods” (The United States of America as represented by the …, priority 1987, dated 1989).
“Also recorded” adds a separate entry of the source.

Experiments:
HIV [1] = experiment: In vitro inhibition of the cytopathic effect of HIV in ATH8 cells; assay type: cell-based, human immunodeficiency virus
Source text: ATH8 cells (2×10^5) were pre-exposed to polybrene, and exposed to HIV in culture tubes (2,000 virus particles per cell), in the presence or absence of various concentrations of 2',3'-dideoxycytidine (ddC).
(§1) Of critical importance to the biological activation of the 2',3'-dideoxycytidine analogues inside human cells, both as antiviral and as antitumor agents, is their anabolic conversion to nucleotides inside cells. This cannot be assumed to occur because not all nucleoside analgoues can be adequately phosphorylated. The ability of HIV-infected human T-lymphoblasts to phosphorylate 2',3'-dideoxycytidine nucleoside (ddCyd) was tested. […] The incubation was terminated after 24 hours of drug exposure, and the TCA-soluble fraction of the cell lysate was resolved on HPLC, utilizing a radial compression column of Partisil-10 SAX with a gradient of ammonium phosphate.

HIV-infected ATH8 cells = tested on: HIV-infected ATH8 cells
Description: as §1

PBM + PHA = experiment: In vitro immune reactivity of PBM stimulated with PHA (3H-uridine incorporation); assay type: cell-based, human; conditions: 72 hours, control (None) 82 ± 1
Description: (§2) 5×10^4 normal helper/inducer TM3 cells were stimulated with tetanus toxoid (0.6 limiting flocculation units/ml) plus 10^5 irradiated (4,000 rad) autologous peripheral blood mononuclear cells (PBM) as a source of accessory cells, and were cultured for 72 hours in the presence or absence of ddC. After exposure to uCi ^3 H-uridine for the final 5 hours, cells were harvested onto glass fibers and the incorporated radioactivity was counted. Data are expressed as the arithmetic mean counts per minute (×10^3)±1 standard deviation triplicate determinations. 10^6 PBM from a healthy individual were stimulated with phytohaemagglutinin (PHA) or pokeweek mitogen (PWM) and cultured for 72 hours, and treated as described above. ^3 H-uridine incorporation was used as an indicator of activiation of the responder cells.

HIV p24 antigen = experiment: Circulating HIV p24 antigen level in patients; assay type: in vivo, human immunodeficiency virus; conditions: following treatment
Source text: (§3) The efficacy of the application of 2',3'-dideoxycytidine in human use is shown graphically in Table I, where the absolute number of T4 cells and the T4/T8 ratio both show an increase in the T cells, indicating improvements of the immune system in patients with AIDS and its related conditions following therapy. […] It has also been shown that the circulating p24 antigen-level (a measure of viral replication in a patient's body) falls, following treatment with these compositions.
levels in the blood after one to two weeks of treatment.

T4 cells [2] = experiment: T4 cell number and T4/T8 ratio in AIDS patients receiving ddC; assay type: in vivo, human; conditions: patient 2, 0.03 mg/kg every 8 hours, IV then oral, 19 days receiving ddC
PBM + PWM = experiment: In vitro immune reactivity of PBM stimulated with PWM (3H-uridine incorporation); assay type: cell-based, human; conditions: 72 hours, control (None) 24 ± 1
Description: as §2

HIV [3] = experiment: In vitro inhibition of infectivity and replication of HIV (p24 gag expression in H9 cells); assay type: cell-based
Description: The in vitro inhibition of the infectivity and replication of the HIV virus by ddC was also tested. The results are shown in FIG. 4-B. In this test, 10^5 H9 cells were exposed to various concentrations of ddC for 4 hours, then to 2 ug/ml polybrene for 30 minutes, pelleted, and then exposed to HIV (3,000 virus particles/cell) for 1.5 hours. Cells were resuspended in fresh complete medium and cultured in tubes at 37° C. in 5% CO2 -containing humidified air, and under conditions in which the cells were continuously exposed to ddC. On days 8 (left), 9 (middle), and 10 (right) in culture, the percentage of the target H9 cells expressing p24 gag protein of HIV was determined by indirect immunofluorescence microscopy by using anti-HIV p24 murine monocolonal antibody.

T cells = experiment: Safety to T cells (studies of anabolic phosphorylation on human cells); assay type: cell-based; conditions: comparable dosages
T4 cells [4] = experiment: T4 cell number and T4/T8 ratio in AIDS patients receiving ddC; assay type: in vivo, human; conditions: for T4/T8 Ratio, Start Treatment / T4/mm3, Start Treatment: start of treatment
Source text: as §3
*Patients 1 and 2 received one dose of ddC every 8 hours, and patient 3
received one dose every 4 hours. Patient 1 received intravenous (IV)
dosing throughout; patient 2 received IV dosing for 21 days, followed by
oral dosing; patient 3 received IV dosing throughout. IV dosing was given
as 1 hour infusions. For oral dosing, the ddC was administered dissolved
in 0.1 ml of 0.9% sodium chloride solution and approximately 100 ml of
orange juice. Each patient received a 1 hour intravenous infusion (test
dose) of ddC two days prior to the initiating of dosing.

[5] = tested on: Human T4^+ T lymphocytes (ATH8 cell line); experiment: Anabolism of ddCyd by human T4+ T lymphocytes (intracellular concentration); assay type: in vitro ADME; conditions: ATH8 cells exposed to 1 uM ddCyd for 24 hours
Description: * After incubation with ^3 Hlabelled 2',3dideoxycytidine (ddCyd) (1
exchange HPLC using radial compression columns of PartisilSAX equilibrate
phosphate, pH 3.8. ddCMP, 2',3dideoxycytidine-5monophosphate; ddCDP,

Clone TM 3 = experiment: In vitro immune reactivity of normal helper/inducer TM3 cells (3H-uridine incorporation); assay type: cell-based, human; conditions: 72 hours, tetanus toxoid, control (None) 12 ± 1
[6] = Toxicity observed in humans likely due to ddC administration; assay type: in vivo, human
Source text: Toxicity toward humans has been shown by the observation residing in Table II.
Toxicity Observed Which is
Likely to be Due to ddC Administration

cytidine deaminase = experiment: Sensitivity to cytidine deaminase; assay type: in vitro ADME
normal lymphocytes = tested on: normal lymphocytes
Description: as §2

[7] = Example 7, concentration (uM) figure not given
[8] = AIDS patients, following therapy
[9] = patient 1, 0.25 mg/kg every 8 hours IV, 8 days receiving ddC
[10] = patient 1, 0.25 mg/kg every 8 hours IV
[11] = patient 2, 0.03 mg/kg every 8 hours, IV then oral
[12] = patient 3, 0.03 mg/kg every 4 hours IV, 12 days receiving ddC
[13] = patient 3, 0.03 mg/kg every 4 hours IV
[14] = 0.03 mg/kg 3×/day intravenous for 12 days followed by 0.3 mg/kg 3×/day orally

Nc1ccn([C@H]2C[C@H](O)[C@@H](CO)O2)c(=O)n1 [dCYD, reference compound]
reversal of the anti-HIV effect of ddCyd (HIV [1]; dCYD with ddCyd): reverses the anti-HIV effect of ddCyd | phosphorylation of ddCYD (HIV-infected ATH8 cells; dCYD (5 uM) added together with ddCYD): phosphorylation was blocked

Nc1ccn([C@H]2CC[C@@H](CO)O2)c(=O)n1 [ddC, 2',3'-dideoxycytidine]
mean counts per minute (×10^3) ± 1 standard deviation, 3H-uridine incorporation (PBM + PHA; 1 uM ddC): 101 ± 1 counts per minute (×10^3) | mean counts per minute (×10^3) ± 1 standard deviation, 3H-uridine incorporation (PBM + PHA; 10 uM ddC): 86 ± 3 counts per minute (×10^3) | circulating p24 antigen-level (HIV p24 antigen): falls | inhibition of the cytopathic effect of the virus (HIV [1]; 1 uM ddCyd): 100% | inhibition of the cytopathic effect of HIV (HIV [1]; ATH8 cells, day 5, 2,000 virus particles per cell, FIG. 4-A): almost complete inhibition | inhibition of the cytopathic effect of HIV (HIV [1]; [7]): virtually complete inhibition | T4/T8 Ratio, End Treatment (T4 cells [2]): 0.47 | T/mm3, End Treatment (T4 cells [2]): 326 /mm3 | mean counts per minute (×10^3) ± 1 standard deviation, 3H-uridine incorporation (PBM + PWM; 1 uM ddC): 23 ± 3 counts per minute (×10^3) | mean counts per minute (×10^3) ± 1 standard deviation, 3H-uridine incorporation (PBM + PWM; 10 uM ddC): 15 ± 3 counts per minute (×10^3) | inhibition of the infectivity of the virus (HIV [3]; 1 uM ddCyd): 100% | inhibition of the replication of the virus (HIV [3]; 1 uM ddCyd): 100% | inhibition of the viral p24 expression (HIV [3]; [7]): virtually complete inhibition | inhibition of the infectivity and replication of HIV (HIV [3]; H9 cells, p24 gag expression, days 8, 9, 10, 3,000 virus particles/cell, FIG. 4-B): almost complete inhibition | difference between uninfected and HIV-infected ATH8 cells in ability to phosphorylate ddCYD (HIV-infected ATH8 cells): No significant qualitative or quantitative differences | safety to T cells (T cells): safe and non-lethal to T cells | T4/T8 ratio (change) (T4 cells [4]; [8]): increase | absolute number of T4 cells (T4 cells [4]; [8]): increase | T4/T8 Ratio, End Treatment (T4 cells [4]; [9]): 0.40 | T/mm3, End Treatment (T4 cells [4]; [9]): 530 /mm3 | T4/T8 Ratio, Start Treatment (T4 cells [4]; [10]): 0.20 | T4/mm3, Start Treatment (T4 cells [4]; [10]): 309 /mm3 | T4/T8 Ratio, Start Treatment (T4 cells [4]; [11]): 0.39 | T4/mm3, Start Treatment (T4 cells [4]; [11]): 260 /mm3 | T4/T8 Ratio, End Treatment (T4 cells [4]; [12]): 0.51 | T/mm3, End Treatment (T4 cells [4]; [12]): 307 /mm3 | T4/T8 Ratio, Start Treatment (T4 cells [4]; [13]): 0.26 | T4/mm3, Start Treatment (T4 cells [4]; [13]): 246 /mm3 | Intracellular concentration of ddCDP [5]: 1.20 µM | Intracellular concentration of ddCDPch [5]: 1.10 µM | Intracellular concentration of ddCMP [5]: 2.10 µM | Intracellular concentration of ddCTP [5]: 0.5 µM | Intracellular concentration of ddCyd [5]: 6.40 µM | mean counts per minute (×10^3) ± 1 standard deviation, 3H-uridine incorporation (Clone TM 3; 1 uM ddC): 13 ± 1 counts per minute (×10^3) | mean counts per minute (×10^3) ± 1 standard deviation, 3H-uridine incorporation (Clone TM 3; 10 uM ddC): 8 ± 1 counts per minute (×10^3) | Tolerated for up to, without significant toxicity in some patients [6, 14]: up to 40 days | minor toxicity in one patient [6, 14]: skin rash and oral ulcers | Tolerated for up to, without significant toxicity ([6]; 0.03 mg/kg 6×/day intravenous for 14 days, followed by 0.03 mg/kg 6×/day orally): up to 18 days | Toxicity ([6]; 0.25 mg/kg 3×/day intravenous): Thrombocytopenia; also recorded: skin rash | platelets, before drop ([6]; 0.25 mg/kg 3×/day intravenous, dropped from): 234,000 /mm^3 | platelets, after drop ([6]; 0.25 mg/kg 3×/day intravenous, dropped to): 68,000 /mm^3 | minor toxicities ([6]; humans): skin rash and aphthous stomatitis | toxic effect in humans ([6]; humans): bone marrow suppression (decreased platelets) | toxicity in some patients with prolonged administration ([6]; some patients, prolonged administration): small fiber peripheral neuropathy | sensitivity to cytidine deaminase (cytidine deaminase): not sensitive to cytidine deaminase | harm to cells (normal lymphocytes): not harmed by drug concentrations that exceed the virustatic dose
